The assay concerns the target T1, T1R1 and T1R2 with G protein α-subunits (α15 and α16/Z chimeric protein) (Mus musculus, UniProt Q925I4+Q99PG6, E350G/G527D/P352R/R175Q).
T1 construct: expressed in transfected cells; host or cells: 293 cells, RCB 1637 (human embryonic kidney)
T1 sequence (Q99PG6 20-842 L120P/N244D/D281A/N309Y/P311T/S314P/H418Y): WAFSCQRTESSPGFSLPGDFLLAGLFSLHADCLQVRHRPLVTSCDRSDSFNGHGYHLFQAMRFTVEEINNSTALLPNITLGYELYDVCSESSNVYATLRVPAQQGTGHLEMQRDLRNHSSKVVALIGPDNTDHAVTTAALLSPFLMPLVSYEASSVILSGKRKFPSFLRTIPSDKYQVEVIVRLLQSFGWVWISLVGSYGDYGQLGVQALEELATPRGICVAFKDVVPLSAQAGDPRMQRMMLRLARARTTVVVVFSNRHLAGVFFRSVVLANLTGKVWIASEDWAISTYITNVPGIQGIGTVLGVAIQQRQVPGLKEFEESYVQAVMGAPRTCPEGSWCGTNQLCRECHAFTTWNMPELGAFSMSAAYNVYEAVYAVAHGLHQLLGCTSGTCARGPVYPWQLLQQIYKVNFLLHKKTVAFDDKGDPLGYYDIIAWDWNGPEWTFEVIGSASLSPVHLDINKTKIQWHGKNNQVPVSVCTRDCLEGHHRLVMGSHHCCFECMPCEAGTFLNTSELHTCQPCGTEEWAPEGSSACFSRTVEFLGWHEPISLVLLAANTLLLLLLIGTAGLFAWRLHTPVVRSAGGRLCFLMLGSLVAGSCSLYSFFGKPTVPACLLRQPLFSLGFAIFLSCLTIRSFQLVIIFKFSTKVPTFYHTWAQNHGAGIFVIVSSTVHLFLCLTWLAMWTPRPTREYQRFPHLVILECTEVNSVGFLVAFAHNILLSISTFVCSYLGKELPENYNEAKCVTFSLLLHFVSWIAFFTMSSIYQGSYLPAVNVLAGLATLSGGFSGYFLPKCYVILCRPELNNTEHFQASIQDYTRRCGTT
T1 sequence (Q925I4 20-843 R175Q/E350G/P352R/G527D): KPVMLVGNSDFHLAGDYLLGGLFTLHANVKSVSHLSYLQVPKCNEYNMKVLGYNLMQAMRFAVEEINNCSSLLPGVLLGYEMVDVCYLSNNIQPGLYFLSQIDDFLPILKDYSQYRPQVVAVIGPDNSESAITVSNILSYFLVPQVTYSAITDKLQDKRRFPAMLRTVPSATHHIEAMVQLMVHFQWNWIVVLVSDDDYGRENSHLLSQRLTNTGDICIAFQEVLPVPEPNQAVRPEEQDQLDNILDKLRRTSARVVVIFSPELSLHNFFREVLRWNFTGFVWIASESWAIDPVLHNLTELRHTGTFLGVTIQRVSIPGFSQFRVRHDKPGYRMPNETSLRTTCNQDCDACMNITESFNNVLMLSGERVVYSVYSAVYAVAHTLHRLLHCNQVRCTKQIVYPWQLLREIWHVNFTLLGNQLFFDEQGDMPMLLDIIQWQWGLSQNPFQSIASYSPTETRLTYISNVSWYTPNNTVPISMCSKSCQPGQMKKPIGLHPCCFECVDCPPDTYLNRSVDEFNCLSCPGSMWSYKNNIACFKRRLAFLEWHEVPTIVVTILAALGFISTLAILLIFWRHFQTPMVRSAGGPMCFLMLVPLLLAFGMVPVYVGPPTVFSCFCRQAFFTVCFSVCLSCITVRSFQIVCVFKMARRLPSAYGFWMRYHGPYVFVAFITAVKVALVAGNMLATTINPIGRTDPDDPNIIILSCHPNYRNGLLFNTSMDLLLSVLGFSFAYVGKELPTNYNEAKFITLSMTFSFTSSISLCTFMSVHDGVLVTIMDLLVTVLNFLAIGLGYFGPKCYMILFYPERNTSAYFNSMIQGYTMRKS
The assay is described as follows: Intracellular calcium ion assay, 293 cells coexpressing G protein α-subunits, T1R1 and T1R2. The assay is classed as cell-based. The conditions noted are these: 293 cells: T1R1 + T1R2 + G protein α-subunits; 0.67 ml of 1 M saccharide solution added to 2 ml cell suspension; FLUO-4 AM. The procedure: The coexpression vector for the G protein α-subunit α15 and the G protein α16/Z chimeric protein (hereinafter designated as “G protein α-subunits”) obtained in Example 1-3 was gene transferred to 293 cells, RCB 1637, a human embryonic kidney cell line, available from the Riken Bioresource Center, Ibaraki, Japan, by conventional lipofection. The gene transferred cells were suspended in Dulbecco's Modified Eagle's Medium (D-MEM) supplemented with 1 mg/L of “PUROMYCIN”, a trade mane of puromycin commercialized by Edge Biosystems, MD, USA, and 10% (v/v) of fetal calf serum to give a cell density of 2×10^6 cells/ml and cultured in a plastic petri dish for cell culture. […]
The captioned reactivity test was conducted according to a conventional intracellular calcium ion assay: 293 Cells prepared in Example 3, capable of coexpressing the G protein α-subunits and the sweet taste receptor(s), were cultured in a plastic petri dish for cell culture until reaching its confluent phase. […] Two milliliters of the resultant cell suspension was injected into a glass cuvette, commercialized by Hitachi, Ltd., Tokyo, Japan, and analyzed on “HITACHI 650-40”, a fluorescence spectrophotometer commercialized by Hitachi, Ltd., Tokyo, Japan. […]
In general terms: Calcium assays in cells follow changes in intracellular calcium, usually with a dye or a luminescent sensor.

For the compound `OC[C@H]1O[C@H](O[C@H]2O[C@H](CO)[C@@H](O)[C@H](O)[C@H]2O)[C@H](O)[C@@H](O)[C@@H]1O` [Trehalose], the “Influx of calcium ion” value is on record as “Negative”.
In the case of `OC[C@H]1O[C@@](CO)(O[C@H]2O[C@H](CO)[C@@H](O)[C@H](O)[C@H]2O)[C@@H](O)[C@@H]1O` [Sucrose, reference compound] it was “Negative”.

Values taken from US20050048508A1, “Trehalose receptor and method for detecting trehalose with the same” (KABUSHIKI KAISHA HAYASHIBARA SEIBUTSU KAGAKU KENKYUJO, priority 2002, published 2005).
